Patent US20230203081A1, “LINCOSAMIDE ANTIBIOTICS AND USES THEREOF” (President and Fellows of Harvard College, priority 2020, published 2023)

Assays:
Format in all cases: cell-based
E. coli armA = experiment: microbe, parasite or virus in culture; settings: E. coli HAV#056; Clinical, armA
Method in brief: (§1)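 Inoculum for broth microdilution was 5×10^5 CFU/mL final, prepared from overnight 35° C blood-agar subcultures (separate handling for streptococcal and anaerobic strains); MICs read by CLSI broth microdilution or agar dilution.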

S. aureus MP-549 msrA = experiment: microbe, parasite or virus in culture; settings: S. aureus HAV#032, MP-549; MSR(A)
Method in brief: as §1

[1] = test system: broad panel of different clinical isolates; experiment: organism not typed
Method in brief: as §1

E. coli ΔTolC = experiment: microbe, parasite or virus in culture; settings: E. coli HAV#038; ΔTolC
Method in brief: as §1

S. aureus BAA 977 iErmA = experiment: microbe, parasite or virus in culture; settings: S. aureus #HAV002, ATCC BAA 977; iErmA, MRSA
Method in brief: as §1

S. aureus ATCC 700699 = experiment: MIC (broth microdilution or agar dilution, CLSI); settings: S. aureus HAV#202, ATCC 700699 (VISA)
Method in brief: as §1

E. faecalis ATCC 29212 = experiment: MIC (broth microdilution or agar dilution, CLSI); settings: E. faecalis HAV#005, ATCC 29212
Method in brief: as §1

E. coli LptD = experiment: MIC (broth microdilution or agar dilution, CLSI); settings: E. coli HAV#040; LptD
Method in brief: as §1

[2] = test system: S. pneumoniae MMX 3031 cMefA; experiment: MIC (broth microdilution or agar dilution, CLSI); settings: S. pneumoniae HAV#034; MMX 3031, cMefA
Method in brief: as §1

S. pneumoniae ATCC 49619 = experiment: MIC (broth microdilution or agar dilution, CLSI); settings: S. pneumoniae HAV#003, ATCC 49619
Method in brief: as §1

[3] = test system: S. pyogenes MMX 946; cErmB; experiment: MIC (broth microdilution or agar dilution, CLSI); settings: S. pyogenes HAV#035, MMX 946; cErmB, mac-resistant
Method in brief: as §1

S. aureus MMX 3035 cErmA = experiment: MIC (broth microdilution or agar dilution, CLSI); settings: S. aureus HAV#031, MMX 3035; cErmA
Method in brief: as §1

S. aureus ATCC 29213 = experiment: MIC (broth microdilution or agar dilution, CLSI); settings: S. aureus HAV#001, ATCC 29213, MP-549
Method in brief: as §1

K. oxytoca Clinical = experiment: MIC (broth microdilution or agar dilution, CLSI); settings: K. oxytoca HAV#450; Clinical
Method in brief: as §1

K. pneumoniae ATCC 10031 = experiment: MIC (broth microdilution or agar dilution, CLSI); settings: K. pneumoniae HAV#008, ATCC 10031
Method in brief: as §1

S. aureus hVISA = experiment: MIC (broth microdilution or agar dilution, CLSI); settings: S. aureus HAV#204, hVISA
Method in brief: as §1

[4] = test system: S. aureus ATCC BAA-1707 (MRSA); experiment: MIC (broth microdilution or agar dilution, CLSI); settings: S. aureus HAV#016, ATCC BAA-1707; MRSA
Method in brief: as §1

S. pyogenes ATCC 19615 = experiment: MIC (broth microdilution or agar dilution, CLSI); settings: S. pyogenes HAV#004, ATCC 19615
Method in brief: as §1

[5] = test system: S. pneumoniae MMX 3028 cErmB; experiment: MIC (broth microdilution or agar dilution, CLSI); settings: S. pneumoniae HAV#033; MMX 3028, cErmB
Method in brief: as §1

## Gentamicin
E. coli armA
  MIC: >256 µg/mL
S. aureus MP-549 msrA
  MIC: 1 µg/mL
[1]; A. baumannii HAV#651, Clinical
  MIC: 2 µg/mL
[1]; A. baumannii HAV#652 Clinical
  MIC: 16 µg/mL
[1]; A. baumannii HAV#653, Clinical
  MIC: 0.5 µg/mL
[1]; A. baumannii HAV#654, Clinical
  MIC: 2 µg/mL
[1]; A. baumannii HAV#655, Clinical
  MIC: 2 µg/mL
[1]; A. baumannii HAV#656, Clinical
  MIC: 4 µg/mL
[1]; A. baumannii HAV#657, Clinical
  MIC: 4 µg/mL
[1]; A. baumannii HAV#658, Clinical
  MIC: 1 µg/mL
[1]; A. baumannii HAV#659, Clinical
  MIC: 32 µg/mL
[1]; A. baumannii HAV#660, Clinical
  MIC: 32 µg/mL
[1]; A. baumannii HAV#661, Clinical
  MIC: 1 µg/mL
[1]; A. baumannii HAV#662, Clinical
  MIC: 4 µg/mL
[1]; A. baumannii HAV#663, Clinical
  MIC: 0.5 µg/mL
[1]; A. baumannii HAV#664, Carbapenem R
  MIC: >128 µg/mL
[1]; E. coli HAV#501, Clinical
  MIC: 2 µg/mL
[1]; E. coli HAV#503, Clinical
  MIC: 4 µg/mL
[1]; E. coli HAV#511, Clinical
  MIC: 16 µg/mL
[1]; E. coli HAV#512, Clinical
  MIC: 2 µg/mL
[1]; E. coli HAV#513, Clinical
  MIC: 2 µg/mL
[1]; E. coli HAV#514, Clinical
  MIC: 1 µg/mL
[1]; E. coli HAV#516, ESBL-producing
  MIC: 2 µg/mL
[1]; E. faecalis HAV#251, Clinical VRE
  MIC: 16 µg/mL
[1]; E. faecalis HAV#606, Clinical, VRE
  MIC: >256 µg/mL
[1]; E. faecalis HAV#607, Clinical
  MIC: >256 µg/mL
[1]; E. faecalis HAV#608, Clinical
  MIC: >256 µg/mL
[1]; E. faecalis HAV#609, Clinical
  MIC: >256 µg/mL
[1]; E. faecalis HAV#610, Clinical
  MIC: >256 µg/mL
[1]; E. faecalis HAV#611, Line R & Vanco R
  MIC: >128 µg/mL
[1]; E. faecalis HAV#612, Line R
  MIC: >128 µg/mL
[1]; E. faecium HAV#317, Clinical
  MIC: 16 µg/mL
[1]; E. faecium HAV#318, VanA, VRE
  MIC: 8 µg/mL
[1]; E. faecium HAV#324, Clinical
  MIC: >256 µg/mL
[1]; E. faecium HAV#327, Clinical
  MIC: 8 µg/mL
[1]; E. faecium HAV#328, Clinical
  MIC: >256 µg/mL
[1]; E. faecium HAV#329, Clinical
  MIC: 4 µg/mL
[1]; H. influenzae HAV#376, ATCC-9007
  MIC: 4 µg/mL
[1]; K. pneumoniae HAV#041, Clinical, KPC
  MIC: 8 µg/mL
[1]; K. pneumoniae HAV#404, Clinical
  MIC: 0.5 µg/mL
[1]; K. pneumoniae HAV#405, Clinical
  MIC: 0.5 µg/mL
[1]; K. pneumoniae HAV#406, Clinical
  MIC: 1 µg/mL
[1]; K. pneumoniae HAV#407, Clinical
  MIC: 0.5 µg/mL
[1]; K. pneumoniae HAV#408, Clinical
  MIC: 2 µg/mL
[1]; K. pneumoniae HAV#409, ESBL-producing
  MIC: 0.5 µg/mL
[1]; S. aureus HAV#017, MRSA Col(Colindale, England)
  MIC: 0.5 µg/mL
[1]; S. aureus HAV#051, mecA, norA, spcl, ermA, aad1, aac6′-aph2″
  MIC: 2 µg/mL
[1]; S. aureus HAV#052, mecA, norA, fosB, blaZ
  MIC: 1 µg/mL
[1]; S. aureus HAV#053 mecA, norA, fosB
  MIC: 1 µg/mL
[1]; S. aureus HAV#054, mecA, norA, spcl, aad1, fosB, ermA, aac6′-aph2″, blaZ
  MIC: 128 µg/mL
[1]; S. aureus HAV#203, Clinical (VISA)
  MIC: >64 µg/mL
[1]; S. aureus HAV#216, Clinical, cfr
  MIC: 8 µg/mL
[1]; S. aureus HAV#217, cfr
  MIC: 4 µg/mL
[1]; S. epidermidis HAV# 275 Clinical, cfr
  MIC: >64 µg/mL
[1]; S. epidermidis HAV# 276, cfr
  MIC: >64 µg/mL
[1]; S. haemolyticus HAV#252, Line R & Methicillin R
  MIC: >128 µg/mL
E. coli ΔTolC
  MIC: 1 µg/mL
S. aureus BAA 977 iErmA
  MIC: 2 µg/mL
S. aureus ATCC 700699
  MIC: >64 µg/mL
E. faecalis ATCC 29212
  MIC: 16 µg/mL
E. coli LptD
  MIC: 1 µg/mL
[2]
  MIC: 8 µg/mL
S. pneumoniae ATCC 49619
  MIC: 16 µg/mL
[3]
  MIC: 16 µg/mL
S. aureus MMX 3035 cErmA
  MIC: 1 µg/mL
S. aureus ATCC 29213
  MIC: 1 µg/mL
K. oxytoca Clinical
  MIC: 4 µg/mL
K. pneumoniae ATCC 10031
  MIC: 0.25 µg/mL
S. aureus hVISA
  MIC: >64 µg/mL
[4]
  MIC: 1 µg/mL
S. pyogenes ATCC 19615
  MIC: 8 µg/mL
[5]
  MIC: 4 µg/mL
